In brackets after ≈: the same amount, converted by molar mass.
Assay: physchem
Excerpt: Determination of the small molecule content in a complex plant matrix depends on the understanding of minimum solubility in the chosen extraction solvent. […] Often, tests on mixture are hardly reproducible on pure compounds if this aspect is not routinely considered in the workflow. We performed a general testing of best solvent systems to compare a wide range of small molecules of interest to understand the limitations of general approaches within a complex plant matrix such as Nicotiana.
For each of the 29 reference compounds, 2 mg was weighed into a 15 mL glass tube and dissolved in the minimum amount of the test solvent by gradually adding the solvent with a micropipette until complete dissolution or to a final volume of 10.0 mL. Seven solvents with polarities from nonpolar to polar were chosen for the test: hexane (C6H14), CH2Cl2, CH2Cl2/MeOH (4:1, v/v), EtOH, MeOH, MeOH/H2O (7:3, v/v), and H2O. The consumed solvents and their volumes were recorded for each reference compound.

[1] = 22 °C, organic solvent or mixture, thermodynamic from solid, Solubility in CH2Cl2
[2] = 22 °C, organic solvent or mixture, thermodynamic from solid, Solubility in EtOH
[3] = 22 °C, organic solvent or mixture, thermodynamic from solid, Solubility in MeOH/H2O (7:3)
[4] = hexane (C6H14), 22 °C, organic solvent or mixture, thermodynamic from solid, Solubility in C6H14, solvent hexane (C6H14); room temperature (21–23 °C); 2 mg compound, solvent added until dissolution or 10.0 mL
[5] = methanol, 22 °C, organic solvent or mixture, thermodynamic from solid, Solubility in MeOH, solvent methanol; room temperature (21–23 °C)
[6] = water, 22 °C, thermodynamic from solid, Solubility in H2O, solvent water; room temperature (21–23 °C)
[7] = 22 °C, organic solvent or mixture, thermodynamic from solid, Solubility in C6H14, solvent hexane (C6H14); room temperature (21–23 °C); 2 mg compound, solvent added until dissolution or 10.0 mL
[8] = 22 °C, organic solvent or mixture, thermodynamic from solid, Solubility in CH2Cl2, solvent dichloromethane (CH2Cl2); room temperature (21–23 °C)
[9] = 22 °C, organic solvent or mixture, thermodynamic from solid, Solubility in CH2Cl2/MeOH (4:1), solvent CH2Cl2/MeOH (4:1, v/v); room temperature (21–23 °C)
[10] = 22 °C, organic solvent or mixture, thermodynamic from solid, Solubility in EtOH, solvent ethanol; room temperature (21–23 °C)
[11] = 22 °C, organic solvent or mixture, thermodynamic from solid, Solubility in MeOH, solvent methanol; room temperature (21–23 °C)
[12] = 22 °C, organic solvent or mixture, thermodynamic from solid, Solubility in MeOH/H2O (7:3), solvent MeOH/H2O (7:3, v/v); room temperature (21–23 °C)
[13] = 22 °C, water, thermodynamic from solid, Solubility in H2O, solvent water; room temperature (21–23 °C)
[14] = MeOH/H2O (7:3, v/v), 22 °C, organic solvent or mixture, thermodynamic from solid, Solubility in MeOH/H2O (7:3), solvent MeOH/H2O (7:3, v/v); room temperature (21–23 °C)
[15] = dichloromethane (CH2Cl2), 22 °C, organic solvent or mixture, thermodynamic from solid, Solubility in CH2Cl2, solvent dichloromethane (CH2Cl2); room temperature (21–23 °C)
[16] = ethanol, 22 °C, organic solvent or mixture, thermodynamic from solid, Solubility in EtOH, solvent ethanol; room temperature (21–23 °C)
[17] = solvent CH2Cl2/MeOH (4:1, v/v); room temperature (21–23 °C)
[18] = solvent MeOH/H2O (7:3, v/v); room temperature (21–23 °C)
[19] = solvent dichloromethane (CH2Cl2); room temperature (21–23 °C)
[20] = solvent ethanol; room temperature (21–23 °C)
[21] = solvent hexane (C6H14); room temperature (21–23 °C); 2 mg compound, solvent added until dissolution or 10.0 mL
[22] = solvent methanol; room temperature (21–23 °C)
[23] = solvent water; room temperature (21–23 °C)
[24] = 22 °C, organic solvent or mixture, thermodynamic from solid, Solubility in C6H14
[25] = 22 °C, organic solvent or mixture, thermodynamic from solid, Solubility in MeOH
[26] = 22 °C, water, thermodynamic from solid, Solubility in H2O

Work on `O=C(O)c1cccnc1` [Nicotinic acid] yielded a solubility [1] of under 190 µg/mL, a solubility [2] of 3510 µg/mL (≈ 28.5 mM) and a solubility [3] of 2850 µg/mL (≈ 23.1 mM). It also gave a solubility [4] of under 190 µg/mL, a solubility [5] of 6710 µg/mL (≈ 54.5 mM) and a solubility [6] of 3100 µg/mL (≈ 25.2 mM).
`c1cncc([C@@H]2CCCN2)c1` [Nornicotine] showed a solubility [7] of 358000 µg/mL (≈ 2420 mM), a solubility [8] of 422000 µg/mL (≈ 2850 mM) and a solubility [9] of 412000 µg/mL (≈ 2780 mM). For the same compound, the solubility [10] was 396000 µg/mL (≈ 2670 mM), the solubility [11] was 428000 µg/mL (≈ 2890 mM) and the solubility [12] was 418000 µg/mL (≈ 2820 mM). For the same compound, the solubility [13] was 416000 µg/mL (≈ 2810 mM).
Work on `C[C@@H]1O[C@@H](OC[C@H]2O[C@@H](Oc3c(-c4ccc(O)c(O)c4)oc4cc(O)cc(O)c4c3=O)[C@H](O)[C@@H](O)[C@@H]2O)[C@H](O)[C@H](O)[C@H]1O` [Rutin] yielded a solubility [14] of 520 µg/mL (≈ 0.852 mM), a solubility [15] of under 190 µg/mL and a solubility [16] of 6670 µg/mL (≈ 10.9 mM). For the same compound, the solubility [4] was under 190 µg/mL, the solubility [5] was 49000 µg/mL (≈ 80.3 mM) and the “Solubility in CH2Cl2/MeOH (4:1)” value [17] was 3820 µg/mL (≈ 6.26 mM). The “Solubility in CH2Cl2/MeOH (4:1)” value (solvent CH2Cl2/MeOH (4:1, v/v); room temperature (21–23 °C); listed as rutin) was under 100000 µg/mL and the solubility [6] was under 190 µg/mL.
With `C=C[C@](C)(O)CC[C@@H]1[C@@]2(C)CCCC(C)(C)[C@@H]2CC[C@@]1(C)O` [Sclareol] the solubility (CH2Cl2/MeOH (4:1, v/v), 22 °C, organic solvent or mixture, thermodynamic from solid, Solubility in CH2Cl2/MeOH (4:1), solvent CH2Cl2/MeOH (4:1, v/v); room temperature (21–23 °C)) was 219000 µg/mL (≈ 710 mM), the solubility [14] was 3170 µg/mL (≈ 10.3 mM) and the solubility [15] was 58000 µg/mL (≈ 188 mM). The solubility [16] was 75700 µg/mL (≈ 245 mM), the solubility [4] was 3760 µg/mL (≈ 12.2 mM) and the solubility [5] was 65700 µg/mL (≈ 213 mM). The solubility [6] was under 190 µg/mL.
With `CC(C)=CCC/C(C)=C/CC/C(C)=C/CC/C(C)=C/CC/C(C)=C/CC/C(C)=C/CC/C(C)=C/CC/C(C)=C/CC/C(C)=C/CO` [Solanesol] the “Solubility in CH2Cl2/MeOH (4:1)” value [17] was 203000 µg/mL (≈ 322 mM), the “Solubility in MeOH/H2O (7:3)” value [18] was “NS (not soluble, insoluble in the solvent at the tested concentration range (0.19–558 mg/mL))” and the “Solubility in CH2Cl2” value [19] was 235000 µg/mL (≈ 372 mM). For the same compound, the “Solubility in EtOH” value [20] was 3310 µg/mL (≈ 5.24 mM), the “Solubility in C6H14” value [21] was 42000 µg/mL (≈ 66.6 mM) and the “Solubility in MeOH” value [22] was 510 µg/mL (≈ 0.808 mM). The “Solubility in H2O” value [23] was “NS (not soluble, insoluble in the solvent at the tested concentration range (0.19–558 mg/mL))”.
Work on `CC(C)=CCC/C(C)=C/CC/C(C)=C/CC/C=C(\C)CC/C=C(\C)CCC=C(C)C` [Squalene] yielded a solubility [7] of 446000 µg/mL (≈ 1090 mM), a solubility [8] of 474000 µg/mL (≈ 1150 mM) and a solubility [9] of 472000 µg/mL (≈ 1150 mM). It also gave a solubility [10] of 5940 µg/mL (≈ 14.5 mM), a solubility [11] of 220 µg/mL (≈ 0.536 mM) and a solubility [12] of under 190 µg/mL. It also gave a solubility [13] of under 190 µg/mL.
`C=C1CC[C@H](O)C/C1=C/C=C1\CCC[C@]2(C)[C@@H]([C@H](C)CCCC(C)C)CC[C@@H]12` [Vitamin D3] gave a solubility [24] of 104000 µg/mL (≈ 270 mM), a solubility [1] of 100000 µg/mL (≈ 260 mM) and a solubility (22 °C, organic solvent or mixture, thermodynamic from solid, Solubility in CH2Cl2/MeOH (4:1)) of 212000 µg/mL (≈ 551 mM). The solubility [2] was 74300 µg/mL (≈ 193 mM), the solubility [25] was 113000 µg/mL (≈ 294 mM) and the solubility [3] was under 190 µg/mL. It also gave a solubility [26] of under 190 µg/mL.
Compound `C/C(=C\CNc1ncnc2[nH]cnc12)CO` [Zeatin] has a solubility [24] of under 190 µg/mL, a solubility [1] of under 190 µg/mL and a solubility [2] of 560 µg/mL (≈ 2.55 mM). For the same compound, the solubility [25] was 2280 µg/mL (≈ 10.4 mM), the solubility [3] was 3030 µg/mL (≈ 13.8 mM) and the solubility [26] was under 190 µg/mL.
Compound `CC1=C(/C=C/C(C)=C/C=C/C(C)=C/C=C/C=C(C)/C=C/C=C(C)/C=C/C2=C(C)C[C@@H](O)CC2(C)C)C(C)(C)C[C@H](O)C1` [Zeaxanthin] has a solubility [7] of under 190 µg/mL, a solubility [8] of 290 µg/mL (≈ 0.51 mM) and a solubility [10] of under 190 µg/mL. The solubility [11] was under 190 µg/mL, the solubility [12] was under 190 µg/mL and the solubility [13] was under 190 µg/mL. The “Solubility in CH2Cl2/MeOH (4:1)” value [17] was 490 µg/mL (≈ 0.861 mM) and the “Solubility in CH2Cl2/MeOH (4:1)” value (solvent CH2Cl2/MeOH (4:1, v/v); room temperature (21–23 °C); listed as zeaxanthin) was under 100000 µg/mL.
With Megastigmatrienone the “Solubility in CH2Cl2/MeOH (4:1)” value [17] was 212000 µg/mL, the “Solubility in MeOH/H2O (7:3)” value [18] was 38800 µg/mL and the “Solubility in CH2Cl2” value [19] was 215000 µg/mL. For the same compound, the “Solubility in EtOH” value [20] was 197000 µg/mL, the “Solubility in C6H14” value [21] was 1100 µg/mL and the “Solubility in MeOH” value [22] was 228000 µg/mL. For the same compound, the “Solubility in H2O” value [23] was “NS (not soluble, insoluble in the solvent at the tested concentration range (0.19–558 mg/mL))”.
With Phytol the “Solubility in MeOH/H2O (7:3)” value [18] was 320 µg/mL and the “Solubility in H2O” value [23] was “NS (not soluble, insoluble in the solvent at the tested concentration range (0.19–558 mg/mL))”.
